Where two headings read alike, the source gives them in different places.
Key:
[1] = test system: porcine isolated tail artery
Experimental: U46619 was added to produce a contraction equivalent to 60% of KCl followed by sufficient to forskolin to causes a relaxation back to baseline. Cumulative concentration response curves to brimondine and phenylephrine were elicited in the presence and absence of the combination of U4/For. Responses have been expressed a percent of the contraction to 60 mM KCl and represent the mean of 5-6 separate observations.

[2] = test system: sheep isolated rectal vein; experiment: Wire myography, sheep isolated rectal vein (SRV); assay type: cell-based; conditions: SRV
Experimental: Sheep mesenteric tissue, from the distal sigmoid colon to the anus, was obtained from a local abattoir. The sheep tissue was delivered in a dry bag and stored at 4° C. until dissected. The bundle of sheep rectal vessels was dissected from its mesentery within four hours of arrival from the abattoir. The vascular bundle was then kept in the pre-oxygenated Krebs-Henseleit buffer solution at 4° C. until used (on the same day as a preferential method or on the following day after storage overnight). No experiments were conducted on tissue stored for more than 24 hours after dissection. The Krebs solution consisted of 118.4 mM NaCl, 4.7 mM KCl, 1.2 mM MgSO4, 1.2 mM KH2PO4, 1.25 mM CaCl2, 24.9 mM NaHCO3, and 11.1 mM glucose.
Before setting a wire myography experiment, the remaining loose connective tissue was meticulously removed from the rectal vessels. The internal diameter of sheep isolated rectal artery and vein was 450-650 μm and 500-1000 μm, respectively. Each 5-mm ring segment of the ‘clean’ vessels was then suspended between two 200-μm wire supports in an organ bath containing 20 ml Krebs-Henseleit buffer solution. The upper supporting wire was attached to an isometric force transducer, while the lower wire was fixed steadily to a clamped glass rod. The bath solution was maintained at 37° C., and continuously gassed with 95% O2 and 5% CO2. Isometric tension was continuously recorded using a PowerLab 4/25 via QUAD Bridge amplifier (ADInstruments, Inc, Australia).
After a 10-minute equilibration period, an initial tension of 8 gram weight (g wt) was gradually applied for an arterial segment and left to relax for 30 minutes. The final tension of SRA varied between 1.0 g wt and 2.8 g wt. For a venous segment, an initial tension of 1 g wt was applied and, 10 minutes later, the resting tension was finally re-adjusted to reach a tension of 0.5 g wt. Then the vein was left to relax for further 20 minutes. The final tension of SRV ranged from 0.08 to 0.25 g wt. Once the vascular segments were fully settled, the tissues were tested for contractile activity with 60 mM KCl on three occasions. The vascular contraction was allowed to reach maximum, which generally took about 1-4 minutes. Each KCl challenge was followed by two washouts of 37° C. Krebs solution and the tissues were allowed to rest for 20 minutes between the challenges. The maximum contraction (tension) produced by the third administration of 60 mM KCl was used as a reference contraction to which subsequent responses were compared. After the final (3rd) KCl challenge, the tissues were washed and left for 60 minutes before α-adrenoceptor agonist was administrated. To construct an agonist concentration-response curves (CRC), 0.3-0.4 log 10 increments of agonist solution was added e.g. at the agonist concentration of 100 nM, 200 nM, 500 nM, 1 μM, 2 μM, 5 μM, and so on. Each response was allowed to reach equilibrium or plateau before the next dose of agonist was added. The maximal response to the agonist was considered when no further increase in response occurred upon the addition of two or more consecutive doses of agonist.
In the case of the noradrenaline study, 10 μM cocaine was added into the organ bath 40 minutes prior to the administration of noradrenaline for inhibiting the uptake of noradrenaline by neural tissue within the vascular wall (re-uptake 1) (Westfall & Westfall, 2006 In Goodman & Gilman's the Pharmacological Basis of Therapeutics. eds Brunton, L. L., Lazo, J. S. & Paker, K. L. pp. 137-181. New York: McGraw Hill). Regarding KCl-induced vasoconstriction, the CRC was generated by the contractile response to 6 mM increments of KCl solution, starting from 0 mM to 60 mM.
Consecutive CRCs were generated to each agonist, separated by 60 minutes, and if there was no difference in the maximum response (Emax) and pEC50 (defined as the negative logarithm of the concentration required to produce 50% of the maximum response) then a paired CRC protocol was used throughout. […]

α2-adrenoceptor [3] = conditions: porcine vessels; cited from earlier work
α2-adrenoceptor [4] = experiment: Saturation radioligand binding of [^3H]-RX821002 to sheep anorectal tissue membranes
Experimental: Fresh sheep anorectal tissues were dissected from whole buttock from sheep within four hours of slaughter. The buttocks were delivered in a dry bag and stored at 4° C. until dissected. The tissues used in this experiment included rectal smooth muscle (RSM), rectal mucosa (RM), anal mucosa (AM), internal anal sphincter (IAS), sheep rectal artery (SRA), sheep rectal vein (SRV), and the terminal branches of rectal vessels (TB). The dissected tissues were kept at −20° C. until used. Prior to starting an experiment, the tissue was removed from the freezer and allowed to defrost on ice. […] Non-specific binding was determined using an excessive amount of unlabelled specific receptor ligand. […] Three ml of scintillation fluid (PerkinElmer, UK) was subsequently added into each vial, and left at least 8 hours (preferably overnight) before processing for radioactivity measurement. The amount of radioactivity bound to the filters was measured using a liquid scintillation analyser (Tri-Carb 2100TR, PerkinElmer, UK). The radioactivity was reported as disintegrations per minute (dpm). […] Specific binding of the radioligand to the membranes was calculated by subtracting the non-specific binding from the total binding. Receptor density (Bmax) and ligand dissociation constant (Kd) were then calculated using the specific saturation binding curve of each experiment.

nitric oxide synthase = conditions: 100 μM; cited from earlier work
vascular preparations = conditions: 100 μM; cited from earlier work

For `Brc1c(NC2=NCCN2)ccc2nccnc12` [UK14304, brimonidine], the “contractile responses in the presence of the combination of U46619 and forskolin” value [1] was “enhanced”, the “contractile response” value [2] was “concentration-dependent contractions” and the “veins with concentration-dependent contraction” value ([2]; the rest <10% of the response to 60 mM KCl) was 6 out of 12.

In the case of `COC1(C2=NCCN2)COc2ccccc2O1` (centres unmarked) [[^3H]-RX821002, 2-(2-methoxy-1,4-benzodioxan-2-yl)-2-imidazoline], the Kd (α2-adrenoceptor [3]) is listed as 1.3 to 2.2 nM, the Kd (α2-adrenoceptor [4]; sheep rectal arteries, read-out: Kd of radioligand for α2-adrenoceptor) is listed as 1.42 nM and the Kd (α2-adrenoceptor [4]; sheep rectal vein and terminal branches of sheep rectal vessels, read-out: Kd of α2-adrenoceptor) is listed as roughly 0.3 nM.

For `CN(C)C(N)=NCCC[C@H](N)C(=O)O` [ADMA, Asymmetric dimethyl arginine], the “inhibition of nitric oxide synthase” value (nitric oxide synthase) is listed as “inhibit nitric oxide synthase” and the “effect on vasoconstrictor responses to phenylephrine” value (vascular preparations) is listed as “enhance the vasoconstrictor responses to phenylephrine”.

From US20160287536A1, “Composition” (THE UNIVERSITY OF NOTTINGHAM, priority 2013, published 2016)
